The record followed here is patent US5780008A, “Polyhdric phenol compounds” (Mallinckrodt Medical, Inc., priority 1997, dated 1998).

The subject of data set [1] is erythrocytes. Kind of data set: binding of 3-125I-phloretin to erythrocytes. Also noted: species or system human. As to the method:
(§1) In order to be able to compare the binding to cancer cells with the binding to normal cells, the following experiments are carried out. Binding to certain cancer cells, viz. YAK1 mice lymphoma cells (10^6 cells/ml incubation medium) is compared with binding to erythrocytes of a young healthy person (10^6 cells/ml incubation medium), because erythocytes are typical reference cells for glucose transport studies.
(§2) The incubation media are respectively:
(§3) RPMI buffer pH=8; 11 mM in glucose, and
(§4) RPMI buffer/0.9% NaCl : 1/1.
(§5) Each 1 ml essay contains 5% of foetal calf serum and is spiked (50 μl) with 3-^125 I-phloretin (initial activity is measured). After 15 min incubation at 37° C., the suspension is centrifuged and the precipitate is resuspended with 1 ml cold buffer which is discarded after a second centrifugation. The final radioactive precipitate is suspended in 1 ml water and measured. The bound radioactivity is related to the initial activity.
Saturation binding of 3-^125 I-phloretin to 5.10^6 erythrocytes is performed in RPMI-buffer and Tris-buffer of pH 8. The binding experiments are performed at pH 8, because this is the pH of the RPMI buffer needed for optimum YAK1 cells growth. Incubation for 15 min at 37° C. Inhibition is studied by pre-incubation (15 min, 37° C.) of the erythrocytes in buffer containing 2.10^-4 M 3-Br-phloretin. After centrifugation, the Br-phloretin--containing solution is discarded and the precipitate washed with ice-cooled buffer. After a second centrifugation, the supernatant is discarded and the cells are resuspended in buffer containing 3-^125 I-phloretin. After incubation for 15 min at 37° C., the same above procedure is applied.
Phloretin is a weak acid (pK is approx. 7.3); only the uncharged (non-dissociated) form inhibits red cell glucose transport (Jennings et al., see above). Therefore the values mentioned hereinafter are corrected for dissociation.

For data set [2], the system named is YAK1 mice lymphoma cells. Kind of data set: binding of 3-125I-phloretin to YAK1 lymphoma cancer cells. As to the method: as §1, §2, §3, §4, §5
Data set [3] relates to hexokinase. Kind of data set: hexokinase-model: inhibition of hexokinase catalysed 6-phosphorilation of glucose. The class given is biochemical. The source says: The "hexokinase-model" is used as a model system for the glucose-transport proteins, which play a paramount role in the glucose metabolism.
Data set [4] can be described thus: in vivo distribution studies in rats. As to the method: The in vivo distribution in rats is determined by injecting approx. 10μCi of the compound to be evaluated into the tail vein of the test animals. The test animals are sacrificed at appropriate time intervals after injection and the radioactivity of the organs of interest is measured by gamma scintillation counting.

The nature of data set [5]: binding in human whole blood (RB/plasma distribution, reversibility). Format: in vitro ADME. As to the method:
Jennings et al. [J. Gen. Phys., […], 67, 381]have reported the binding of phloretin to whole red blood cells. Their results let to assume that phloretin should enter the erythrocytes and bind to haemoglobine. This should mean that a phloretin-based radiotracer should not be suitable for in vivo use. Therefore the reversibility of the binding is checked. For this purpose 3-^125 I-phloretin is added to whole heparinised blood. This is centrifuged, yielding serum S-*I and red blood portion RB-*I. S-*I and non-radioactive RB (1/1) and respectively non-radioactive S and RB-*I (1/1) are incubated at 37° C. for 15 min and centrifuged. The radioactivity of all the weighed aliquots is measured in a well NaI(Tl) detector.

Each structure is given as a SMILES string. Bounds are passed on as bounds.

For `O=C(CCc1ccc(O)c(Br)c1)c1c(O)cc(O)cc1O` [3-Br-phloretin, 3-bromophloretin], the “bound/free value of 3-125I-phloretin after pre-incubation with inhibitor” value in data set [1] (pre-incubation with 2×10^-4 M, 15 min 37° C., blank 0.193, average of 5 experiments) is 0.081. Further, the “inhibition of 3-125I-phloretin binding to erythrocytes” value in data set [1] (pre-incubation with 2×10^-4 M, compared with blank) worked out at 58%. In addition, in data set [2] (co-incubation of 3-Br-phloretin, 15 min), the “decreased binding of 3-125I-phloretin to YAK1 cells” value came out at 30%.

Take `O=C(CCc1ccc(O)c(I)c1)c1c(O)cc(O)cc1O` [3-I-phloretin]: in data set [3] (versus phloretin), the “inhibition potency for hexokinase relative to the original phloretin” value was “approx. 2 times”.

Turning to `O=C(CCc1ccc(O)c([125I])c1)c1c(O)cc(O)cc1O` [3-^125 I-phloretin], the “high affinity binding in the presence of serum albumine” value in data set [1] (at equilibrium) was “remains unchanged”. Further, the “influence of glucose on binding” value in data set [1] (presence of 3.10^-3 -5.10^-3 M glucose) is listed as “hardly influences”. Also, the Bmax in data set [1] (saturation binding 0.1 to 1.2 10^-10 M, Scatchard plot, pH 8) was 4.7×10^-15 mol/10^6 erythrocytes. Further, in data set [2] (YAK1 cells versus erythrocytes), the “increase of uptake to YAK1 lymphoma cancer cells as compared to erythrocytes” value was over 2 factor. Besides, in data set [4] (C.A. versus N.C.A.), the “uptake in the heart and muscle in the presence of Br-phloretin (C.A.)” value was “decreased uptake”. Moreover, the “uptake in the lungs (lung versus blood)” value in data set [4] (approx. 10μCi into the tail vein) was “high uptake”. The “nature of binding to plasma-proteins and RB” value in data set [5] is “bound reversibly”.

With `O=C(CCc1ccc(O)cc1)c1c(O)cc(O)cc1O` [phloretin, reference compound], the “type of inhibition of hexokinase activity” value in data set [3] (from Lineweaver-Burck plots, with respect to glucose) is given as “competitive”.
